Experimental data as given in US11186585B2 (priority 2018, dated 2021).
Values joined by “and” are separate entries in the source; they are usually repeats but may differ in a detail not shown here. Identical values can stand only once. “Also recorded” adds a separate entry of the source. Marks after values point to notes of the source that are not given here.

What was measured:
[1] = test system: Sprague-Dawley rats; experiment: Antinociceptive activity, cold ethanol tail-flick test after oral gavage; assay type: in vivo, rat; settings: for Analgesia (rat): oral gavage in sesame oil, 60 uM/kg, one dose, tail-flick at −20° C., cutoff 40 seconds
[2] = test system: rats; experiment: Randall-Selitto test after SC dose; assay type: in vivo, rat; settings: for Randall-Selitto (g), individual animal: NB.HCl 3 mg/kg; for Randall-Selitto (g), individual animal / Randall-Selitto (g), Mean: NB-33.HCl 3.9 mg/kg; for Randall-Selitto (g), Mean: mean of 5, NB.HCl 3 mg/kg
Excerpt: FIG. 13 illustrate in the graphical form the results for 1310 NB-33, marked 1310, in comparison to the base NB compound NB, marked 1320 in FIG. 13.

[3] = Stability in human plasma; settings: 37° C., acceptance criteria: NLT than 20% of hydrolysis after 4 hrs
[4] = Stability in the simulated gastro-intestinal fluid (sGIF); settings: 0.5% pepsine in 0.1N aqueous HCl, 37° C.; acceptance: NLT 80% of the derivative still intact after 4 hrs
[5] = test system: Human recombinant opiate receptor (mu, kappa or delta); experiment: Human recombinant opiate receptor panel, overall profile in words; assay type: cell-based; settings: CHO-K1 cells, cAMP
Procedure: (§1) Human recombinant opiate receptor (mu, kappa or delta) expressed in CHO-K1 cells were used. Test compound (NB-33)/or vehicle was incubated with the cells (4×10E5/mL) in modified HBSS pH 7.4 buffer at […] for 30 min. The reaction was evaluated for cAMP levels by TR-FRET. Compounds were screened at 0.3, 1 and 3 uM. by Eurofins Pharma Discovery Services.
as §1, with “(NX-90)/or” for “(NB-33)/or”, “levels (cAMP and/or calcium flux)” for “levels”, “0.1, 0.3 and” for “0.3,”, “uM” for “and 3 uM.”

[6] = test system: healthy volunteers; experiment: Double-blind trial, heat pain threshold (hot water at 50° C.) after oral capsule; assay type: in vivo, human; settings: for % MPE (analgesia): oral, individual data, 33 45 mg, NB 35 mg, 39 68 mg
Procedure: Double-blind, NB hydrochloride and NB-39 controlled, trial of the antinociceptive effect of oral NB-33 in healthy volunteers. […] Each week a healthy volunteer would receive a pill from the assigned set in a random fashion and take it orally. […]
(§2) Following one week of a wash out period, each volunteer repeated the protocol until all pills from the assigned set were administered. The individual data for heat pain threshold as % MPE=[(test latency−baseline latency)/(baseline latency)]×100 and for miosis as % MPE=[(test diameter−baseline diameter)/(baseline diameter)]×100 are shown in Table 2 and Table 3 respectively.
(§3) Independent samples t-test was used to compare the means of % MPE analgesia and miosis in the two pairs of samples: NB-33 and NB and NB-33 and NB-39. All analyses were made using SPSS (v.25). • Bold indicates statistical significance at α=0.05

[7] = test system: healthy volunteers; experiment: Double-blind trial, miosis after oral capsule; assay type: in vivo, human; settings: for % MPE (miosis): oral, individual data, 33 45 mg, NB 35 mg, 39 68 mg
Procedure: Double-blind, NB hydrochloride and NB-39 controlled, trial of the antinociceptive effect of oral NB-33 in healthy volunteers. Each of the three healthy volunteers was assigned a set of 6 non-transparent gelatin capsules as follows: 2×NB hydrochloride (MW=393.4; 39 mg), 2×NB-33 (MW=451.6; 45 mg) and 2×NB-39 (MW=680.0; 68 mg). Each week a healthy volunteer would receive a pill from the assigned set in a random fashion and take it orally. At T=0 hr, 0.25 hr, 0.5 hr, 1 hr, 1.5 hr, 2 hr, 3 hr and 5 hr followed oral administration a heat pain threshold was measured (hot water at 50° C.) as well as miosis.
as §2, §3

[8] = in vivo; cited from earlier work

SMILES | Analgesia (rat) [1] | Stable in plasma [3] | Stable in sGIF [4] | pharmacological profile at opiate receptors, in words [5] | % MPE (analgesia) ([6]; 0 hr (baseline)) [% MPE] | % MPE (analgesia) ([6]; 0.25 hr) | % MPE (analgesia) ([6]; 0.5 hr) | % MPE (analgesia) ([6]; 1 hr) | % MPE (analgesia) ([6]; 1.5 hr) | % MPE (analgesia) ([6]; 2 hr) | % MPE (analgesia) ([6]; 2.5 hr) | % MPE (analgesia) ([6]; 3 hr) | % MPE (analgesia) ([6]; 5 hr) | % MPE (miosis) ([7]; 0 hr (baseline)) [% MPE] | % MPE (miosis) ([7]; 0.25 hr) | % MPE (miosis) ([7]; 0.5 hr) | % MPE (miosis) ([7]; 1 hr) | % MPE (miosis) ([7]; 1.5 hr) | % MPE (miosis) ([7]; 2 hr) | % MPE (miosis) ([7]; 2.5 hr) | other results
C/C=C/C=C/C(=O)Oc1ccc2c3c1OC1C(O)CCC4(O)C(C2)N(CC2CCC2)CCC314.Cl (centres unmarked) [NB-56, 3-(cyclobutylmethyl)-9-(((2E,4E)-hexa-2,4-dienoyl)oxy)-4a,7-dihydroxy-2,3,4,4a,5,6,7,7a-octahydro-1H-4,12-methanobenzofuro[3,2-e]isoquinolin-3-ium chloride] | No | No | Yes |  |  |  |  |  |  |  |  |  |  |  |  |  |  |  |  |  | Randall-Selitto (g), individual animal ([2]; Post-dose 0.5 hr): 121 g and 120 g and 207 g and 161 g and 96 g; Randall-Selitto (g), Mean ([2]; Post-dose 0.5 hr): 141.0* g; Randall-Selitto (g), individual animal ([2]; Post-dose 1 hr): 98 g and 103 g and 199 g and 73 g and 86 g; Randall-Selitto (g), Mean ([2]; Post-dose 1 hr): 111.8 g; Randall-Selitto (g), individual animal ([2]; Post-dose 2 hr): 99 g and 94 g and 214 g and 102 g and 85 g; Randall-Selitto (g), Mean ([2]; Post-dose 2 hr): 118.8 g; Randall-Selitto (g), individual animal ([2]; Post-dose 4 hr): 83 g and 71 g and 136 g and 63 g and 97 g; Randall-Selitto (g), Mean ([2]; Post-dose 4 hr): 90.0 g; Randall-Selitto (g), individual animal ([2]; Post-dose 6 hr): 79 g and 64 g and 101 g and 65 g and 85 g; Randall-Selitto (g), Mean ([2]; Post-dose 6 hr): 78.8 g; Randall-Selitto (g), individual animal ([2]; Pre-treatment (baseline)): 93 g and 82 g and 98 g and 80 g and 96 g; Randall-Selitto (g), Mean ([2]; Pre-treatment (baseline)): 89.8 g
C=CCN1CCC23c4c5ccc(OC(=O)/C=C/C=C/C)c4OC2C(=O)CCC3(O)C1C5 (centres unmarked) [NX-90, 3-allyl-4a-hydroxy-7-oxo-2,3,4,4a,5,6,7,7a-octahydro-1H-4,12-methanobenzofuro[3,2-e]isoquinolin-9-yl (2E,4E)-hexa-2,4-dienoate] |  |  |  | not a pharmacologically inert compound |  |  |  |  |  |  |  |  |  |  |  |  |  |  |  |  | 
C/C=C/C=C/C(=O)Oc1ccc2c3c1OC1C(O)CCC4(O)C(C2)N(CC2CCC2)CCC314 (centres unmarked) [NB-33, 3-(cyclobutylmethyl)-4a,7-dihydroxy-2,3,4,4a,5,6,7,7a-octahydro-1H-4,12-methanobenzofuro[3,2-e]isoquinolin-9-yl (2E,4E)-hexa-2,4-dienoate] | Excellent | No | Yes | not a pharmacologically inert compound | 0.0 | 0.0 % MPE (2×) and 8.3 % MPE and 3.7 % MPE and 31.3 % MPE and 30.0 % MPE | 19.2 % MPE and 24.0 % MPE and 66.7 % MPE and 48.1 % MPE and 37.5 % MPE (2×) | 100.0 % MPE and 80.0 % MPE and 183.3 % MPE and 59.3 % MPE and 50.0 % MPE and 67.5 % MPE | 115.4 % MPE and 140.0 % MPE and 87.5 % MPE and 114.8 % MPE and 68.8 % MPE and 97.5 % MPE | 111.5 % MPE and 124.0 % MPE and 191.7 % MPE and 185.2 % MPE and 81.3 % MPE and 157.5 % MPE | 119.2 % MPE and 96.0 % MPE and 112.5 % MPE (2×) and 133.3 % MPE and 31.3 % MPE | 157.7 % MPE and 60.0 % MPE and 45.8 % MPE and 118.5 % MPE and 25.0 % MPE and 27.5 % MPE | 115.4 % MPE and 24.0 % MPE and 20.8 % MPE and 44.4 % MPE and 18.8 % MPE and 22.5 % MPE | 0.0 | 26.7 % MPE and −8.8 % MPE and 0.3 % MPE and 20.0 % MPE and 0.0 % MPE and −5.0 % MPE | 26.7 % MPE (3×) and 3.4 % MPE and 33.3 % MPE and −6.3 % MPE | 40.4 % MPE (2×) and 24.0 % MPE and 42.2 % MPE and 33.9 % MPE and 26.7 % MPE | 46.2 % MPE and 20.6 % MPE and 36.5 % MPE (2×) and 42.2 % MPE and 33.9 % MPE | 55.9 % MPE and 37.8 % MPE and 46.2 % MPE (2×) and 42.2 % MPE and 42.9 % MPE | 65.7 % MPE and 46.4 % MPE and 63.7 % MPE and 29.5 % MPE and 33.9 % MPE and 46.2 % MPE | analgesia in rats, in words ([1]; given orally, compared with equivalent dose of Nalbuphine (parent opioid)): excellent and superior results; also recorded: better analgesia than the parent opioid; analgesia in humans, in words ([6]; given orally, compared with equivalent dose of Nalbuphine (NB) and NB-39): superior; % MPE (miosis) ([7]; 3 hr): 29.0 % MPE and 3.4 % MPE and 36.5 % MPE (2×) and 15.6 % MPE and 25.0 % MPE; % MPE (miosis) ([7]; 5 hr): 32.1 % MPE and 3.4 % MPE and 36.5 % MPE and 9.3 % MPE and 17.2 % MPE and 33.7 % MPE; effect on pupil dilation (miosis) in humans, in words ([7]; oral administration): superior; also recorded: significant effect; analgesic properties vs equimolar dose of the parent opioid NB, in words (Graph 1, FIG. 13) ([2]; Randall-Selitto, rats): superior analgesic properties
Oc1ccc2c3c1OC1C(O)CCC4(O)C(C2)N(CC2CCC2)CCC314 (centres unmarked) [NB, 3-(cyclobutylmethyl)-1,2,3,4,5,6,7,7a-octahydro-4aH-4,12-methanobenzofuro[3,2-e]isoquinoline-4a,7,9-triol] | moderate |  |  |  | 0.0 | 0.0 % MPE and 29.5 % MPE and 5.3 % MPE (2×) and 56.3 % MPE and 21.4 % MPE | 5.6 % MPE and 39.3 % MPE and 10.5 % MPE and 50.0 % MPE and 21.1 % MPE and 35.7 % MPE | 50.0 % MPE and 34.4 % MPE and 42.1 % MPE and 87.5 % MPE and 47.4 % MPE and 57.1 % MPE | 100.0 % MPE and 54.1 % MPE and 68.4 % MPE and 112.5 % MPE and 73.7 % MPE and 78.6 % MPE | 94.4 % MPE and 54.1 % MPE and 94.7 % MPE and 162.5 % MPE and 57.9 % MPE and 50.0 % MPE | 66.7 % MPE and 82.0 % MPE and 57.9 % MPE and 106.3 % MPE and 36.8 % MPE and 35.7 % MPE | 22.2 % MPE and 32.8 % MPE and 68.4 % MPE and 37.5 % MPE and 57.9 % MPE and 0.0 % MPE | −5.6 % MPE and 27.9 % MPE and 5.3 % MPE (2×) and 26.7 % MPE and 0.0 % MPE | 0.0 | 3.1 % MPE and 9.4 % MPE and 6.7 % MPE and 0.0 % MPE and 3.2 % MPE and 2.9 % MPE | 9.4 % MPE (2×) and 37.5 % MPE and 0.0 % MPE and 9.7 % MPE and 8.8 % MPE | 21.9 % MPE (2×) and 46.9 % MPE and 6.7 % MPE and 45.2 % MPE and −2.9 % MPE | 17.2 % MPE (2×) and 65.6 % MPE and 25.0 % MPE and 45.2 % MPE and 29.4 % MPE | 18.8 % MPE and 31.3 % MPE (2×) and 55.6 % MPE and 58.1 % MPE and 11.8 % MPE | 18.8 % MPE and 3.1 % MPE and 50.0 % MPE and 25.0 % MPE and 25.8 % MPE and 26.5 % MPE | % MPE (miosis) ([7]; 3 hr): 6.2 % MPE (2×) and 33.3 % MPE and 21.9 % MPE and 16.1 % MPE and 20.6 % MPE; % MPE (miosis) ([7]; 5 hr): 6.2 % MPE (2×) and 3.1 % MPE and 22.2 % MPE and 9.7 % MPE and 7.8 % MPE; oral bioavailability [8]: low
